From patent EP4741379A1, “CLASS OF PROGRAMMED CELL DEATH INHIBITORS, PREPARATION METHOD THEREFOR AND USE THEREOF” (SHANGHAI INSTITUTE OF ORGANIC CHEMISTRY, CHINESE ACADEMY OF …, priority 2023, dated 2025) come the findings set out here.

Assay [1] relates to FADD-deficient Jurkat cells. Description: TNF-induced programmed necrosis of FADD-deficient Jurkat cells (Cell Titer-Glo viability). In kind it is cell-based, human. Particulars: for EC50: Homo sapiens, Jurkat; for programmed necroptosis inhibitory activity compared to SAR443122: TNFα alone or TNFα + SM164, human derived FADD-deficient Jurkat cells. The procedure: (§1) The biological test protocol is adopted to test effects of the compound on TNF-induced programmed necrosis of FADD (Fas-associated death domain)-deficient Jurkat cells and L929 cells.
(§2) Two different stimulation methods were used: treating with tumor necrosis factor (TNFα) alone, or treating with TNFα in combination of mitochondrial-derived cysteine-aspartate activator (SMAC) SM164. Cell viability was determined by measuring chemiluminescence values, thereby assessing the bioactivity of the compounds in inhibiting programmed cell necrosis.
(§3) Method: FADD-deficient Jurkat cells: FADD-deficient Jurkat cells (human peripheral blood leukemia T cell line) were cultured in vitro. After reaching logarithmic growth phase, cells were collected and centrifuged at 1000 rpm for 5 minutes. A supernatant was discarded. A cell concentration was adjusted to 2.5×10^5/mL, and cells were seeded into a 384-well plate at 40 µL per well. In the corresponding wells, 5 µL of SM164 (50 nM) and compounds diluted with cell culture medium were added. After pre-treatment at 37°C for 1 hour, 5 µL of TNFα (50 ng/mL) diluted with cell culture medium was added to each well as a stimulation group, while 5 µL of culture medium was added as a control group. After the plate was incubated in a cell culture incubator (37°C, 5% CO2) for 14 hours, 15 µL of Cell Titer-Glo solution was added to each well. Then, the plate was incubated at room temperature for 30 minutes. Luminescence was measured to assess intracellular ATP levels. Cell viability was set at 100% for unstimulated DMSO control wells. […] The plate was placed in a cell culture incubator (37°C, 5% CO2) and cultured for 12 hours. In the corresponding wells, 5 µL of SM164 (500 nM) and compounds diluted with cell culture medium were added. After pre-treatment at 37°C for 1 hour, 5 µL of TNFα (500 ng/mL) diluted with cell culture medium was added to the wells as a stimulation group, while 5 µL of culture medium was added as a control group. After the plate was incubated in the cell incubator (37°C, 5% CO2) for 14 hours, 15 µL of Cell Titer-Glo solution was added to each well. Then, the plate was incubated at room temperature for 30 minutes, and luminescence was measured to assess intracellular ATP levels. Cell viability was set at 100% for unstimulated DMSO control wells. EC50 values of the compounds were calculated using Prism GraphPad statistical software.
Background: Cellular ATP, detected with luciferase, serves as a proxy for viable cell number.

The test system of assay [2] is L929 cells. Description: TNF-induced programmed necrosis of L929 cells (Cell Titer-Glo viability). It is filed as cell-based, mouse. Particulars: Mus musculus. How it is done: as §1, §2, §3
[3] abbreviates: stimulation with TNFα + SM164, read-out: EC50 (nM) FADD^-/- Jurkat cells (human-derived) TNFα+ SM164.
Where [4] appears, read: stimulation with TNFα alone, read-out: EC50 (nM) FADD^-/- Jurkat cells (human-derived) TNFα.
Setting [5] is: L929, stimulation with TNFα + SM164, read-out: EC50 (nM) L929 cells (mouse-derived) TNFα+ SM164.
The mark [6] stands for this setting: L929, stimulation with TNFα alone, read-out: EC50 (nM) L929 cells (mouse-derived) TNFα.
[7] abbreviates: read-out: EC50 (nM) FADD^-/- Jurkat cells (human-derived) TNFα.
Where [8] appears, read: L929, read-out: EC50 (nM) L929 cells (mouse-derived) TNFα.

Like-named read-outs stand apart in the source and are kept apart here. Bounds are passed on as bounds.

As to `C[C@H](NC(=O)c1nnn(C)c1Cc1ccccc1)c1ccc(C#Cc2cnc3cccnn23)cc1` [IRCBC-131], the EC50 in assay [1] (setting [3]) is 0.16 nM; in assay [1] (setting [4]), 0.003 nM; in assay [2] (setting [5]), 8.75 nM; in assay [2] (setting [6]), 2.05 nM.

Take `C[C@H](NC(=O)c1nnn(C)c1Cc1ccccc1)c1ccc(C#Cc2nccs2)cc1` [IRCBC-007]: the figures for the EC50 in assay [1] (setting [7]) and in assay [2] (setting [8]) were 0.072 nM and 0.631 nM, respectively.

As for `C[C@H](NC(=O)c1nnn(C)c1Cc1ccccc1)c1ccc(C#Cc2ccncc2Cl)cc1` [IRCBC-093], the results for the EC50 in assay [1] (setting [7]) and in assay [2] (setting [8]) were 0.001 nM and 0.374 nM, respectively.

For `C[C@H](NC(=O)c1nnn(C)c1Cc1ccccc1)c1ccc(C#Cc2ccncc2F)cc1` [IRCBC-054], the EC50 was determined as 0.001 nM in assay [1] (setting [7]) and 0.103 nM in assay [2] (setting [8]).

As to `C[C@H](NC(=O)c1nnn(C)c1Cc1ccccc1)c1ccc(C#Cc2ccc(C#N)cn2)cc1` [IRCBC-051], the EC50 is 0.845 nM in assay [1] (setting [3]), 0.006 nM in assay [1] (setting [4]), 4.53 nM in assay [2] (setting [5]) and 1.62 nM in assay [2] (setting [6]).

As to `C[C@H](NC(=O)c1nnn(C)c1Cc1ccc(F)cc1)c1ccc(C#Cc2ccccn2)cc1` [QY-20-53], the EC50 was 0.05 nM in assay [1] (setting [3]), < 0.01 nM in assay [1] (setting [4]), 0.1 nM in assay [2] (setting [5]) and 0.03 nM in assay [2] (setting [6]). The “programmed necroptosis inhibitory activity compared to SAR443122” value in assay [1] is “stronger”.

On to `C[C@H](NC(=O)c1nnn(C)c1Cc1ccccc1)c1ccc(C#CC2CC2)cc1` [QY-18-47], for which the EC50 in assay [1] (setting [3]) is 61 nM; in assay [1] (setting [4]), 0.7 nM; in assay [2] (setting [5]), 73 nM; in assay [2] (setting [6]) it was 1 nM.

Regarding `C[C@H](NC(=O)c1nnn(C)c1Cc1ccc(C#N)cc1)c1ccc(C#Cc2ccccn2)cc1` [IRCBC-071], the EC50 worked out at 0.641 nM in assay [1] (setting [3]), 0.006 nM in assay [1] (setting [4]), 2.99 nM in assay [2] (setting [5]) and 0.914 nM in assay [2] (setting [6]).

Take `CN1C(=O)[C@@H](NC(=O)c2n[nH]c(Cc3ccccc3)n2)COc2ccccc21` [GSK2982772, reference compound]: the EC50 was 4 nM in assay [1] (setting [3]), 0.7 nM in assay [1] (setting [4]), > 1000 nM in assay [2] (setting [5]) and > 1000 nM in assay [2] (setting [6]).

As for `C[C@H](NC(=O)c1nnn(C)c1Cc1cccc(F)c1)c1ccc(C#Cc2ccccn2)cc1` [QY-20-54], the EC50 was < 0.01 nM in assay [1] (setting [3]), < 0.01 nM in assay [1] (setting [4]), 0.3 nM in assay [2] (setting [5]) and 0.05 nM in assay [2] (setting [6]). In addition, the “programmed necroptosis inhibitory activity compared to SAR443122” value in assay [1] was “stronger”.

Take `C[C@H](NC(=O)c1nnn(C)c1Cc1ccccc1)c1ccc(C#Cc2ncc(NC3CC3)cn2)cc1` [IRCBC-271]: the EC50 in assay [1] (setting [3]) was determined as 0.0111 nM; in assay [2] (setting [5]) it was 0.00618 nM.

For the molecule `C[C@H](NC(=O)c1nnn(C)c1Cc1ccccc1)c1ccc(C#Cc2ccc(C(F)(F)F)cn2)cc1` [IRCBC-096], the EC50 was 0.406 nM in assay [1] (setting [3]); 0.006 nM in assay [1] (setting [4]); > 1000 nM in assay [2] (L929, stimulation with TNFα + SM164, µM, read-out: EC50 L929 cells (mouse-derived) TNFα+ SM164); > 1000 nM in assay [2] (L929, stimulation with TNFα alone, µM, read-out: EC50 L929 cells (mouse-derived) TNFα).

Regarding `COC(C)(C)C#Cc1ccc([C@H](C)NC(=O)c2nnn(C)c2Cc2ccccc2)cc1` [IRCBC-036], the EC50 is 0.222 nM in assay [1] (setting [7]) and 13.1 nM in assay [2] (setting [8]).

For `C[C@H](NC(=O)c1nnn(C)c1Cc1ccccc1)c1ccc(C#Cc2cnn(C)c2)cc1` [QY-18-43], the EC50 in assay [1] (setting [3]) was 0.06 nM; in assay [1] (setting [4]) it was 0.02 nM; in assay [2] (setting [5]), 0.08 nM; in assay [2] (setting [6]), 0.05 nM.

On to `C[C@H](NC(=O)c1nnn(C)c1Cc1ccccc1F)c1ccc(C#Cc2ccccn2)cc1` [IRCBC-067], for which the EC50 in assay [1] (setting [3]) stood at 0.261 nM; in assay [1] (setting [4]), 0.004 nM; in assay [2] (setting [5]), 0.887 nM; in assay [2] (setting [6]), 0.264 nM.

As to `C[C@H](NC(=O)c1nnn(C)c1Cc1ccccc1)c1ccc(C#Cc2ccncc2C#N)cc1` [IRCBC-094], the EC50 in assay [1] (setting [3]) came to 0.304 nM; in assay [1] (setting [4]), 0.001 nM; in assay [2] (setting [5]), 2.16 nM; in assay [2] (setting [6]), 0.403 nM.

For the molecule `C[C@H](NC(=O)c1nnn(C)c1Cc1ccccc1)c1ccc(C#Cc2cnn(C3CC3)c2)cc1` [IRCBC-041], the EC50 in assay [1] (setting [7]) came to 0.004 nM; in assay [2] (setting [8]), 0.771 nM.

As for `C[C@H](NC(=O)c1nnn(C)c1Cc1ccccc1)c1ccc(C#Cc2cnc(N(C)C)cn2)cc1` [IRCBC-098], the results for the EC50 in assay [1] (setting [3]), in assay [2] (setting [5]) and in assay [2] (setting [6]) were 0.004 nM, 0.062 nM and 0.011 nM, respectively.

Regarding `C[C@H](NC(=O)c1nnn(C)c1Cc1ccccc1)c1ccc(C#Cc2ccnc(N(C)C)n2)cc1` [IRCBC-100], the EC50 in assay [1] (setting [3]) came to 1.79 nM; in assay [1] (setting [4]), 0.084 nM; in assay [2] (setting [5]) it was 1.21 nM; in assay [2] (setting [6]) it was 0.561 nM.

`C[C@H](NC(=O)c1nnn(C)c1Cc1ccccc1)c1ccc(C#Cc2ccc(N3CCCC3)cn2)cc1` [IRCBC-104]: the EC50 in assay [1] (setting [3]) came to 0.002 nM; in assay [2] (setting [5]) it was 0.12 nM; in assay [2] (setting [6]) it was 0.071 nM.

On to `C[C@H](NC(=O)c1nnn(C)c1Cc1ccccc1)c1ccc(C#Cc2csc(N(C)C)n2)cc1` [IRCBC-106], for which the EC50 was found to be 0.256 nM in assay [1] (setting [3]), 0.004 nM in assay [1] (setting [4]), 0.3 nM in assay [2] (setting [5]) and 0.139 nM in assay [2] (setting [6]).

As to `C[C@H](NC(=O)c1nnn(C)c1Cc1ccccc1)c1ccc(C#Cc2ccc(N3CCC3)cn2)cc1` [IRCBC-103], the EC50 in assay [1] (setting [3]) came to 0.001 nM; in assay [2] (setting [5]), 0.104 nM; in assay [2] (setting [6]), 0.044 nM.

On to `COc1cnc(C#Cc2ccc([C@H](C)NC(=O)c3nnn(C)c3Cc3ccccc3)cc2)nc1` [IRCBC-095], for which the EC50 in assay [1] (setting [3]) came to 0.002 nM; in assay [2] (setting [5]) it was 0.052 nM; in assay [2] (setting [6]) it was 0.01 nM.

`C[C@H](NC(=O)c1nnn(C)c1Cc1ccccc1)c1ccc(C#Cc2ncc[nH]2)cc1` [IRCBC-006]: the EC50 came to 2.03 nM in assay [1] (setting [7]) and 81.9 nM in assay [2] (setting [8]).

Regarding `C[C@H](NC(=O)c1cnn(C)c1Cc1cc(F)cc(F)c1)c1ccc(C#Cc2ccccn2)cc1` [IRCBC-033], the EC50 in assay [1] (setting [3]) is 1.57 nM; in assay [1] (setting [4]), 0.066 nM; in assay [2] (setting [5]) it was 4.11 nM; in assay [2] (setting [6]) it was 0.771 nM.

`C[C@H](NC(=O)c1nnn(C)c1Cc1ccccc1)c1ccc(C#Cc2cc(N(C)C)ccn2)cc1` [IRCBC-125]: the EC50 in assay [1] (setting [3]) turned out to be 0.145 nM; in assay [1] (setting [4]) it was 0.01 nM; in assay [2] (setting [5]) it was 1.68 nM; in assay [2] (setting [6]), 0.445 nM.

In the case of `C[C@H](NC(=O)c1nnn(C)c1Cc1cccc(Cl)c1)c1ccc(C#Cc2ccccn2)cc1` [IRCBC-016], the EC50 in assay [1] (setting [7]) came to 1.69 nM; in assay [2] (setting [8]) it was 5.85 nM.

As to `CCN1CCN(c2ccc(C#Cc3ccc([C@H](C)NC(=O)c4nnn(C)c4Cc4ccccc4)cc3)nc2)CC1` [IRCBC-134], the EC50 in assay [1] (setting [3]) was 0.002 nM; in assay [2] (setting [5]), 0.005 nM; in assay [2] (setting [6]) it was 0.001 nM.

For the molecule `C[C@H](NC(=O)c1nnn(C)c1Cc1ccccc1)c1ccc(C#CC2CCOCC2)cc1` [QY-18-44], the EC50 in assay [1] (setting [3]) is 0.3 nM; in assay [1] (setting [4]) it was 0.04 nM; in assay [2] (setting [5]) it was 0.3 nM; in assay [2] (setting [6]), 0.2 nM.

Take `C[C@H](NC(=O)c1nnn(C)c1Cc1ccccc1)c1ccc(C#Cc2cccc(N(C)C)n2)cc1` [IRCBC-099]: the EC50 in assay [1] (setting [3]) stood at 3.46 nM; in assay [1] (setting [4]) it was 0.195 nM; in assay [2] (setting [5]), 0.734 nM; in assay [2] (setting [6]), 0.399 nM.

In the case of `C[C@H](NC(=O)c1nnn(C)c1Cc1ccccc1)c1ccc(C#Cc2cnoc2)cc1` [QY-18-77], the EC50 in assay [1] (setting [3]) was determined as 32 nM; in assay [1] (setting [4]), 0.3 nM; in assay [2] (setting [6]) it was 733 nM.
